Data on 27 compounds can be found in patent publication US6506772B1, “Substituted [1,2,4]triazolo[1,5a]pyridine derivatives with activity as adenosine receptor ligands” (Hoffmann-La Roche Inc., priority 2000, dated 2003).

For assay [1], the target named is T1, human adenosine A2A receptor (Homo sapiens, UniProt P29274).
T1 construct: expressed in transfected cells; host or cells: CHO cells, Semliki Forest virus expression system; membrane preparation
In words: Human adenosine A2A receptor [3H]-SCH-58261 binding assay. Particulars: for Ki: affinity to human adenosine A2A receptor, read-out: Ki HA2A; for selectivity (A1/A2a): calculated ratio of the affinity to the HA1 receptor to the HA2a receptor.

For assay [2], the target named is T2, HA1 adenosine receptor (Homo sapiens, UniProt P30542).
T2 sequence (P30542 1-326): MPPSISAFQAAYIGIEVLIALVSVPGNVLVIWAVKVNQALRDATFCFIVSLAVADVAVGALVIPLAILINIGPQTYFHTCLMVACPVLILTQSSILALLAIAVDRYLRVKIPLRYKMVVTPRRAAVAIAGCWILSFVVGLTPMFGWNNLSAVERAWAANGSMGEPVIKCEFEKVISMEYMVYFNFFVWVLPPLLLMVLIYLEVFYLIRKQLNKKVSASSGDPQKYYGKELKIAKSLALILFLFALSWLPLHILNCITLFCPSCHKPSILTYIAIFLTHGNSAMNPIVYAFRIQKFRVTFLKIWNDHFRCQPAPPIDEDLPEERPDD
Kind of assay: Human adenosine A1 receptor affinity (Ki hA1). The format is binding. Particulars: affinity to human adenosine A1 receptor.

T1 sequence (P29274 whole entry): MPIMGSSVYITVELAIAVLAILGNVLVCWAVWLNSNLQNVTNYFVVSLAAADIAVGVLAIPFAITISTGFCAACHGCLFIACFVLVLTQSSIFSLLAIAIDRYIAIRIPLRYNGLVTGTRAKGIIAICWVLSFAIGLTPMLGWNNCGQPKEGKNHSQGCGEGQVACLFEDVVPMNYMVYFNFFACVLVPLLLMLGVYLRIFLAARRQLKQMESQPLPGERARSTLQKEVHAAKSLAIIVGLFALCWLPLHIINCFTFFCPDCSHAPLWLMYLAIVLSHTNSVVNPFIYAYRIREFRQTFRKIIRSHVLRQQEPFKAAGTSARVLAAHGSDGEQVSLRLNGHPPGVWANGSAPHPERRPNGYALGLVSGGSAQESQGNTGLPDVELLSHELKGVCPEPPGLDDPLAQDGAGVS

Broadly, the Ki is a measure of affinity in units of concentration, obtained from inhibition or displacement. Regarding `CCCCN(Cc1ccccc1)C(=O)c1cc(N)n2nc(-c3ccc(OC)s3)nc2c1` [Example 73, 5-Amino-2-(5-methoxy-thiophen-2-yl)-[1,2,4]triazolo[1,5-a]pyridine-7-carboxylic acid benzyl-butyl-amide], in assay [1], the Ki was 37.4 nM and the “selectivity (A1/A2a)” value was 3.6. The compound also yielded an inhibition constant Ki in assay [2] of 136 nM.
With `COc1ccc(-c2nc3cc(C(=O)N(CCc4ccccc4)Cc4ccccc4)cc(N)n3n2)s1` [Example 75, 5-Amino-2-(5-methoxy-thiophen-2-yl)-[1,2,4]triazolo[1,5-a]pyridine-7-carboxylic acid benzyl-phenethyl-amide], in assay [1], the Ki stood at 26.6 nM and the “selectivity (A1/A2a)” value is reported as 0.6. The Ki in assay [2] is 15.8 nM.
In the same order, the values of `COc1ccc(-c2nc3cc(C(=O)N(C)CCc4ccccc4)cc(N)n3n2)s1` [Example 77, 5-Amino-2-(5-methoxy-thiophen-2-yl)-[1,2,4]triazolo[1,5-a]pyridine-7-carboxylic acid methyl-phenethyl-amide] are 116 nM, 2.5 and 295 nM.
As to `COc1ccc(-c2nc3cc(C(=O)NCCc4ccccc4Cl)cc(N)n3n2)s1` [Example 78, 5-Amino-2-(5-methoxy-thiophen-2-yl)-[1,2,4]triazolo[1,5-a]pyridine-7-carboxylic acid [2-(2-chloro-phenyl)-ethyl]-amide], in assay [1], the Ki turned out to be 389 nM and the “selectivity (A1/A2a)” value is listed as 0.3. The Ki in assay [2] was 97.4 nM.
For `Nc1cc(C(=O)NCc2ccccc2Br)cc2nc(-c3cccnc3)nn12` [Example 79, 5-Amino-2-pyridin-3-yl-[1,2,4]triazolo[1,5-a]pyridine-7-carboxylic acid 2-bromo-benzylamide], in assay [1], the inhibitory constant (Ki) came to 152 nM and the “selectivity (A1/A2a)” value is 9.2. The same compound gave a Ki in assay [2] of 1400 nM.
On to `CCCCNC(=O)c1cc(N)n2nc(-c3cccnc3)nc2c1` [Example 80, 5-Amino-2-pyridin-3-yl-[1,2,4]triazolo[1,5-a]pyridine-7-carboxylic acid butylamide], for which, in assay [1], the Ki was determined as 282 nM and the “selectivity (A1/A2a)” value was 13.4. Further, in assay [2], the Ki was determined as 3770 nM.
Regarding `Nc1cc(C(=O)NC2CCC2)cc2nc(-c3cccnc3)nn12` [Example 81, 5-Amino-2-pyridin-3-yl-[1,2,4]triazolo[1,5-a]pyridine-7-carboxylic acid cyclobutylamide], the Ki in assay [1] is 315 nM; in assay [2], 4390 nM. Moreover, the “selectivity (A1/A2a)” value in assay [1] is reported as 13.9.
For the compound `CCCNC(=O)c1cc(N)n2nc(-c3cccnc3)nc2c1` [Example 82, 5-Amino-2-pyridin-3-yl-[1,2,4]triazolo[1,5-a]pyridine-7-carboxylic acid propylamide], in assay [1], the Ki was determined as 309 nM and the “selectivity (A1/A2a)” value is 18.9. Also, in assay [2], the affinity, expressed as Ki, was 5850 nM.
Take `Nc1cc(C(=O)NCc2ccccc2Cl)cc2nc(-c3ccc[nH]3)nn12` [Example 83, 5-Amino-2-(1H-pyrrol-2-yl)-[1,2,4]triazolo[1,5-a]pyridine-7-carboxylic acid 2-chloro-benzylamide]: in assay [1], the Ki was 130 nM and the “selectivity (A1/A2a)” value is 11.6. Further, in assay [2], the inhibitory constant (Ki) was determined as 1500 nM.
With `CCCCN(Cc1ccccc1)C(=O)c1cc(N)n2nc(-c3ccc[nH]3)nc2c1` [Example 84, 5-Amino-2-(1H-pyrrol-2-yl)-[1,2,4]triazolo[1,5-a]pyridine-7-carboxylic acid benzyl-butyl-amide], the Ki worked out at 294 nM in assay [1] and 4960 nM in assay [2]. Also, in assay [1], the “selectivity (A1/A2a)” value is given as 16.9.
With `CCN(Cc1ccccc1F)C(=O)c1cc(N)n2nc(-c3ccc[nH]3)nc2c1` [Example 85, 5-Amino-2-(1H-pyrrol-2-yl)-[1,2,4]triazolo[1,5-a]pyridine-7-carboxylic acid ethyl-(2-fluoro-benzyl)-amide], in assay [1], the Ki turned out to be 169 nM and the “selectivity (A1/A2a)” value is 8.3. Besides, the inhibitory constant (Ki) in assay [2] was 1400 nM.
For `CC(C)N(Cc1ccccc1)C(=O)c1cc(N)n2nc(-c3cccnc3)nc2c1` [Example 86, 5-Amino-2-pyridin-3-yl-[1,2,4]triazolo[1,5-a]pyridine-7-carboxylic acid benzyl-isopropyl-amide], the Ki in assay [1] turned out to be 252 nM; in assay [2], 819 nM. In addition, the “selectivity (A1/A2a)” value in assay [1] is 3.2.
For `COc1ccccc1CNC(=O)c1cc(N)n2nc(-c3cccnc3)nc2c1` [Example 87, 5-Amino-2-pyridin-3-yl-[1,2,4]triazolo[1,5-a]pyridine-7-carboxylic acid 2-methoxy-benzylamide], in assay [1], the Ki was determined as 240 nM and the “selectivity (A1/A2a)” value is 5.2. The compound further gave a Ki in assay [2] of 1260 nM.
The corresponding values for `CCN(Cc1ccccc1)C(=O)c1cc(N)n2nc(-c3cccnc3)nc2c1` [Example 88, 5-Amino-2-pyridin-3-yl-[1,2,4]triazolo[1,5-a]pyridine-7-carboxylic acid benzyl-ethyl-amide] are 278 nM, 3.6 and 993 nM.
The corresponding values for `CCCCN(Cc1ccccc1)C(=O)c1cc(N)n2nc(-c3cccnc3)nc2c1` [Example 89, 5-Amino-2-pyridin-3-yl-[1,2,4]triazolo[1,5-a]pyridine-7-carboxylic acid benzyl-butyl-amide] are 174 nM, 5.2 and 900 nM.
In the same order, the values of `Nc1cc(C(=O)N(CCc2ccccc2)Cc2ccccc2)cc2nc(-c3cccnc3)nn12` [Example 90, 5-Amino-2-pyridin-3-yl-[1,2,4]triazolo[1,5-a]pyridine-7-carboxylic acid benzyl-phenethyl-amide] are 144 nM, 1.7 and 239 nM.
Regarding `CCN(Cc1ccccc1F)C(=O)c1cc(N)n2nc(-c3cccnc3)nc2c1` [Example 91, 5-Amino-2-pyridin-3-yl-[1,2,4]triazolo[1,5-a]pyridine-7-carboxylic acid ethyl-(2-fluoro-benzyl)-amide], in assay [1], the Ki is 144 nM and the “selectivity (A1/A2a)” value was 5.7. Moreover, affinity in assay [2] was put at a Ki of 815 nM.
The corresponding values for `COc1ccccc1CNC(=O)c1cc(N)n2nc(-c3ccc[nH]3)nc2c1` [Example 93, 5-Amino-2-(1H-pyrrol-2-yl)-[1,2,4]triazolo[1,5-a]pyridine-7-carboxylic acid 2-methoxy-benzylamide] are 304 nM, 16.0 and 4860 nM.
On to `Nc1cc(C(=O)N(CCc2ccccc2)Cc2ccccc2)cc2nc(-c3ccc[nH]3)nn12` [Example 96, 5-Amino-2-(1H-pyrrol-2-yl)-[1,2,4]triazolo[1,5-a]pyridine-7-carboxylic acid benzyl-phenethyl-amide], for which, in assay [1], the Ki was 217 nM and the “selectivity (A1/A2a)” value is recorded as 3.4. In assay [2], this compound came in with a Ki of 729 nM.
As to `COc1cc(CNC(=O)c2cc(N)n3nc(-c4nccs4)nc3c2)cc(OC)c1OC` [Example 97, 5-Amino-2-thiazol-2-yl-[1,2,4]triazolo[1,5-a]pyridine-7-carboxylic acid 3,4,5-trimethoxy-benzylamide], the Ki in assay [1] was 235 nM; in assay [2], 2560 nM. In addition, the “selectivity (A1/A2a)” value in assay [1] was 10.9.
In the case of `CCCCNC(=O)c1cc(N)n2nc(-c3ccoc3)nc2c1` [Example 98, 5-Amino-2-furan-3-yl-[1,2,4]triazolo[1,5-a]pyridine-7-carboxylic acid butylamide], in assay [1], the Ki stood at 50.5 nM and the “selectivity (A1/A2a)” value is 15.2. The Ki in assay [2] was 767 nM.
Regarding `Nc1cc(C(=O)N2CCCC2)cc2nc(-c3ccoc3)nn12` [Example 99, (5-Amino-2-furan-3-yl-[1,2,4]triazolo[1,5-a]pyridin-7-yl)-pyrrolidin-1-yl-methanone], the Ki in assay [1] came to 233 nM; in assay [2], 6100 nM. For the same compound, the “selectivity (A1/A2a)” value in assay [1] is 26.2.
The corresponding values for `Cc1ccc(-c2nc3cc(C(=O)N(C)C4CCCCC4)cc(N)n3n2)o1` [Example 100, 5-Amino-2-(5-methyl-furan-2-yl)-[1,2,4]triazolo[1,5-a]pyridine-7-carboxylic acid cyclohexyl-methyl-amide] are 15.5 nM, 529 nM and 34.1.
As to `CCN(CC)C(=O)c1cc(N)n2nc(-c3ccccc3O)nc2c1` [Example 101, 5-Amino-2-(2-hydroxy-phenyl)-[1,2,4]triazolo[1,5-a]pyridine-7-carboxylic acid diethylamide], in assay [1], the Ki worked out at 33.3 nM and the “selectivity (A1/A2a)” value is listed as 21.1. In addition, the Ki in assay [2] turned out to be 701 nM.
In the case of `Nc1cc(C(=O)N2CCCCC2)cc2nc(-c3ccccc3O)nn12` [Example 102, [5-Amino-2-(2-hydroxy-phenyl)-[1,2,4]triazolo[1,5-a]pyridin-7-yl]-piperidin-1-yl-methanone], in assay [1], the Ki was determined as 57.6 nM and the “selectivity (A1/A2a)” value is on record as 17.0. This compound also gave a Ki in assay [2] of 978 nM.
With `Nc1cc(C(=O)N2CCCCC2)cc2nc(-c3nccs3)nn12` [Example 103, (5-Amino-2-thiazol-2-yl-[1,2,4]triazolo[1,5-a]pyridin-7-yl)-piperidin-1-yl-methanone], in assay [1], the Ki amounted to 101 nM and the “selectivity (A1/A2a)” value is reported as 35.1. The affinity in assay [2] corresponds to a Ki of 3530 nM.
Take `CCCCNC(=O)c1cc(N)n2nc(-c3ccco3)nc2c1` [Example 104, 5-Amino-2-furan-2-yl-[1,2,4]triazolo[1,5-a]pyridine-7-carboxylic acid butylamide]: in assay [1], the Ki was 4.9 nM and the “selectivity (A1/A2a)” value is recorded as 46.0. The same compound displayed a Ki in assay [2] of 223 nM.
